From ChEMBL document CHEMBL5230112, “Covalent inhibitors of GAPDH: From unspecific warheads to selective compounds” (Eur J Med Chem, 2020) come the findings set out here.

Test [1] addresses T1, Glyceraldehyde-3-phosphate dehydrogenase (Homo sapiens, UniProt P04406). The test can be described thus: Irreversible inhibition of GAPDH (unknown origin) assessed as ratio of Kinact/Ki.
Target sequence in this assay (P04406 2-335 limits assumed): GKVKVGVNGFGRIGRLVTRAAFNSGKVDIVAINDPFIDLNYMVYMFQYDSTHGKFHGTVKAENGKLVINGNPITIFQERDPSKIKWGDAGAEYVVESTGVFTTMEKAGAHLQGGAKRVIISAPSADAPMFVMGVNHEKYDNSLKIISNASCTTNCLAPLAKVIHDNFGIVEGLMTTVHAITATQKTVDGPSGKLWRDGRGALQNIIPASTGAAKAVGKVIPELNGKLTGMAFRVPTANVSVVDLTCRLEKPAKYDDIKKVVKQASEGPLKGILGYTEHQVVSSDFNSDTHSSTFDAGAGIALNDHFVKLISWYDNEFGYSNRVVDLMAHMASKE
The target of test [2] is T1, Glyceraldehyde-3-phosphate dehydrogenase. The test can be described thus: Inhibition of human GAPDH.
Target sequence in this assay (P04406 2-335 limits assumed): as above
The subject of another test is Saccharomyces cerevisiae. Nature of the test: Irreversible inhibition of yeast GAPDH holoenzyme.
Test [3] concerns the target T1, Glyceraldehyde-3-phosphate dehydrogenase. The test can be described thus: Irreversible inhibition of GAPDH (unknown origin) assessed as ratio of Kinact/Ki at slow phase.
Target sequence in this assay (P04406 2-335 limits assumed): as above
Test [4] has the same target. The test can be described thus: Irreversible inhibition of GAPDH (unknown origin) assessed as ratio of Kinact/Ki at fast phase.
Target sequence in this assay (P04406 2-335 limits assumed): as above
The target of test [5] is Glyceraldehyde-3-phosphate dehydrogenase (Oryctolagus cuniculus) (UniProt P46406). The test can be described thus: Inhibition of rabbit muscle GAPDH at 0.5 mM incubated for 24 hrs relative to control.
Test [6] concerns the target T1, Glyceraldehyde-3-phosphate dehydrogenase. The test can be described thus: Inhibition of GAPDH (unknown origin) measured after 1 hr.
Target sequence in this assay (P04406 whole entry): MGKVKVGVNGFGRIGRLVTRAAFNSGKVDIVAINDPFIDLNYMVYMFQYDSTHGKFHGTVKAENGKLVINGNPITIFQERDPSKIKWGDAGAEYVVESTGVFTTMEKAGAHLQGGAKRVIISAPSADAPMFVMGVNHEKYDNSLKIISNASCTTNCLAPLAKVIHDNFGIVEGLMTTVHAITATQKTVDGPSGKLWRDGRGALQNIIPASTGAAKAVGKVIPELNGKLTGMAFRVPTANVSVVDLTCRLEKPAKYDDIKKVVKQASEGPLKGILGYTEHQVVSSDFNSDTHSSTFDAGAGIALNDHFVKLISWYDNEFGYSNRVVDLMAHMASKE

Usually inhibition stands for how much of the control response was suppressed. As a reminder, the IC50 is the point on the concentration scale where inhibition reaches its midpoint. High values mean weaker potency, low ones greater potency.

Sequence of Glyceraldehyde-3-phosphate dehydrogenase (Oryctolagus cuniculus) (P46406 whole entry, looked up): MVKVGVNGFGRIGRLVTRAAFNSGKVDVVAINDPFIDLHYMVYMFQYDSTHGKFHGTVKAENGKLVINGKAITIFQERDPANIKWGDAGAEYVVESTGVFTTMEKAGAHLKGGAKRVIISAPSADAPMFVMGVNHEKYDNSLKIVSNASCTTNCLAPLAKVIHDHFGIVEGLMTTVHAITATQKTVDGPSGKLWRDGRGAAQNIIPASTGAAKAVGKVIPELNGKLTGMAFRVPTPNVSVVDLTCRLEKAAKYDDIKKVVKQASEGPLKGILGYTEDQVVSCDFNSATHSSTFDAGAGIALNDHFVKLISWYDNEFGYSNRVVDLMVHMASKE

Regarding `C=CC(C)=O`, the Ratio in test [1] was found to be 128 M⁻¹ s⁻¹. On to `O=C(CBr)P(=O)(O)O`, for which the figures for the K (in test [2]; with Saccharomyces cerevisiae) were 3.5 10^4/M/s and 5.4 10^4/M/s, respectively. As for `COC(=O)/C=C/C(=O)OC`, the figures for the Ratio in test [3] and in test [4] were 10.9 M⁻¹ s⁻¹ and 18.3 M⁻¹ s⁻¹, respectively. In test [5], `O=C(O)/C=C/C(=O)O` displayed an inhibition of 20%.

On to `C=CC#N`, for which, in test [1], the Ratio is 9.2 M⁻¹ s⁻¹. For `O=C(CCl)P(=O)(O)O`, in the test on Saccharomyces cerevisiae, the K was 2.8 10^4/M/s. For the molecule `CCCCCC(O)/C=C/C=O` (stereo not given) [4-HYDROXYNON-2-ENAL], in test [6], the 50% inhibitory concentration (IC50) was found to be 50 µM. Still for that read-out and setting: the figure for `CCC(O)/C=C/C=O` (stereo not given) is 39.1 µM.
